# From patent EP0254663B1, “2-(2-Phosphonoxyphenyl-Carbonyloxy)benzoic acid, salts thereof, a process for the preparation thereof” (SUEROS, ANTIBIOTICOS Y LABORATORIO DE VACUNOTERAPIA, …, priority 1986, dated 1988)
# Columns and labels:
# [1] = system: carrageenin induced rat paw oedema; assay: carrageenin induced rat paw oedema; type: in vivo; details: 200 mg/kg
# Experimental: PSS has a 49 % anti-inflammatory activity at 200 mg/kg on carrageenin induced rat paw oedema.
# [2] = system: adjuvant arthritis; assay: adjuvant arthritis inhibition; type: in vivo; details: 100-200 mg/kg/day, for 14 days
# Experimental: At doses ranging from 100-200 mg/kg/day, for 14 days, PSS inhibits adjuvant arthritis by 40 - 50 %. At equal dose levels, inhibition by ASA is 0 - 39 %.
# [3] = system: serum reducing activity (SH group levels); assay: correction of depressed serum reducing activity (SH group levels) in adjuvant arthritis; type: in vivo; details: 200 mg/kg/day
# Experimental: In adjuvant arthritis, there is observed a depression of the serum reducing activity (SH group levels). PSS affords a 100 % correction at 200 mg/kg/day, while at equal dose levels ASA only affords a 60 % correction.
# [4] = system: pain induced in mouse by i.p. injection of acetic acid; assay: pain induced in mouse by i.p. injection of acetic acid; type: in vivo; details: i.p. acetic acid 30 minutes after oral administration
# Experimental: The inhibitory dose30 levels (ID-30) for pain induced in mouse by i.p. injection of acetic acid 30 minutes after oral administration were: 46.3, 98.15, 40 and 129.6 for PSS, PS (phosphosal), ASA and SS, respectively.
# [5] = system: motor activity inhibition produced by inflammatory pain; assay: correction of motor activity inhibition produced by inflammatory pain; type: in vivo; details: 200 mg/kg
# Experimental: PSS and ASA afford a 90 % correction of the motor activity inhibition produced by inflammatory pain at 200 mg/kg.
# [6] = system: death by respiratory distress caused by i.v. injection of arachidonic acid; assay: protection from death by respiratory distress caused by i.v. arachidonic acid; type: in vivo
# Experimental: ASA provides 72 % protection at 50 mg/kg.
# [7] = ulcerogenic activity; details: in vivo
# From the text: The ulcerogenic activity of PSS (ulcerogenic index - 3.16) is lower than that of ASA (UI = 10.54) or indo- methacin (Ul - 25.28).
# [8] = acute oral toxicity; details: in vivo, read-out: Acute toxicity (LDso)
# [9] = system: beer yeast induced fever; assay: beer yeast induced fever in the rat; type: in vivo
# [10] = gastrointestinal hemorrhages, blood in faeces (radioisotope method); type: in vivo; details: 400 mg/kg, faeces excreted during the following 4 days
# [11] = salicylic acid levels after continued administration for 14 days; type: in vivo; details: continued administration at equal dose levels for 14 days
SMILES,anti-inflammatory activity [1],inhibition of adjuvant arthritis [2],correction of depression of the serum reducing activity (SH group levels) [3],inhibitory dose30 levels (ID-30) [4],correction of the motor activity inhibition produced by inflammatory pain [5],protection from death by respiratory distress ([6]; 50 mg/kg),ulcerogenic index [7],LD50 [8],antipyretic activity [9],protection from death by respiratory distress ([6]; 100 mg/kg),"Gastrointestinal hemorrhages, measured as µl blood in faeces [10]",salicylic acid levels [11]
"CC(=O)Oc1ccccc1C(=O)O [ASA, acetyl salycilic acid]",61%,0 - 39%,60%,40,90%,72%,10.54,1100 mg/kg,,,,
"O=C(O)c1ccccc1OP(=O)(O)O [PS, salicylic acid phosphonate]",,,,98.15,65%,,,,,,,
"O=C(O)c1ccccc1OC(=O)c1ccccc1OP(=O)(O)O [PSS, 2-(2-phosphonoxyphenylcarbonyloxy) benzoic acid]",49%,40 - 50%,100%,46.3,90%,,3.16,1590 mg/kg,superior to ASA and inferior to paracetamol,does not protect,significantly lower than those caused by ASA,much higher salicylic acid levels for PSS than for ASA
"O=C(Oc1ccccc1C(=O)O)c1ccccc1O [SS, 2-(2-hydroxyphenylcarbonyloxy) benzoic acid]",24%,,,129.6,32.6%,,,,,,,
COc1ccc2c(c1)c(CC(=O)O)c(C)n2C(=O)c1ccc(Cl)cc1 [indo- methacin],,,,,,,25.28,,,,,
